Reference: patent US12286428B2 (BRISTOL-MYERS SQUIBB COMPANY, priority 2019, dated 2025)

What was measured:
[1] = system: Human whole blood, IL-6 levels after TLR2 agonist lipoteichoic acid; experiment: IRAK4 Whole Blood Assay; assay type: cell-based; conditions: compounds 60 minutes at 37° C., lipoteichoic acid 10 μg/mL for 5 hours
Description: IRAK4 Whole Blood Assay Human whole blood containing the anti-coagulant ACD-A was plated in 384-well plate (25 μL/well) and incubated with compounds for 60 minutes at 37° C. in a 5% CO2 incubator. The blood was stimulated with a TLR2 agonist, 10 μg/mL final concentration of lipoteichoic acid (Invivogen, San Diego, CA) in 25 μL RPMI (Gibco) for 5 hours in a 5% CO2 incubator. At the end of the incubation, plates were centrifuged at 2300 rpm for 5 minutes. Supernatants were harvested and analyzed for IL-6 levels by Flow Cytometry beads assay (BD Biosciences, San Jose, CA).

[2] = target: T1, IRAK4 (Homo sapiens, UniProt Q9NWZ3); experiment: IRAK4 Inhibition Assay; assay type: biochemical; conditions: ATP 500 μM, IRAK4 0.6 nM, 60 min room temperature, Caliper LABCHIP 3000
T1 sequence (Q9NWZ3 1-460): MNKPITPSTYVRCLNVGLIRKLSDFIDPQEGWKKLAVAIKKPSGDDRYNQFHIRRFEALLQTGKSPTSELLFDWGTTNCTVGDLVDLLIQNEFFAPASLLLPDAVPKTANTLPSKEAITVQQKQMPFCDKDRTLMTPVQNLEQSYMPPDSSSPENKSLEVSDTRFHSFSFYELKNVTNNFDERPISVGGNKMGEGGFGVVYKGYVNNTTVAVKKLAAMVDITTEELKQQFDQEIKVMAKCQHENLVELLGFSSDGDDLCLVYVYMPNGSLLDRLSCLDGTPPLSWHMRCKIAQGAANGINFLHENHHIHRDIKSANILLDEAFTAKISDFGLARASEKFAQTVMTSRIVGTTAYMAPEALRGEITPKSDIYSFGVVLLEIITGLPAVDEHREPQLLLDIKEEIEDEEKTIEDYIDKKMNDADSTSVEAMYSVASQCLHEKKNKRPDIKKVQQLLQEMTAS
Description: The assays were performed in U-bottom 384-well plates. […] The reaction was initiated by the combination of IRAK4 with substrates and test compounds. The reaction mixture was incubated at room temperature for 60 min. and terminated by adding 45 μL of 35 mM EDTA to each sample. The reaction mixture was analyzed on the Caliper LABCHIP® 3000 (Caliper, Hopkinton, MA) by electrophoretic separation of the fluorescent substrate and phosphorylated product. […] The final concentrations of reagents in the assays are ATP, 500 μM; FL-[…] peptide 1.5 μM; IRAK4, 0.6 nM; and DMSO, 1.6%.

[3] = FL-IPTSPITTTYFFFKKK peptide […]

| IC50 [1] [nM] | IC50 [2, 3] [nM] | IC50 ([2]; FL-[…] peptide 1.5 μM) [nM] | SMILES |
| --- | --- | --- | --- |
| 280 | 1.3 | – | CC[C@@H]1[C@H](F)C(=O)N[C@@H]1COc1cccc2cc(C(N)=O)c3nccn3c12 [Example 5, 9-(((2S,3S,4S)-3-ethyl-4-fluoro-5-oxopyrrolidin-2-yl)methoxy)imidazo[1,2-a]quinoline-4-carboxamide] |
| 1390 | 1.9 | – | CC[C@H]1[C@@H](COc2cccc3cc(C(N)=O)c4nccn4c23)NC(=O)C1(F)F [Example 10, 9-(((2S,3S)-3-ethyl-4,4-difluoro-5-oxopyrrolidin-2-yl)methoxy)imidazo[1,2-a]quinoline-4-carboxamide] |
| 3460 | 3.4 | – | CC[C@@H]1CC(=O)N[C@@H]1COc1cccc2cc(C(N)=O)c3nc(C)cn3c12 [Example 11, 9-(((2S,3R)-3-ethyl-5-oxopyrrolidin-2-yl)methoxy)-2-methylimidazo[1,2-a]quinoline-4-carboxamide] |
| 10000 | 2.2 | – | CC[C@@H]1[C@H](F)C(=O)N[C@@H]1COc1cccc2cc(C(N)=O)c3nc(C)cn3c12 [Example 12, 9-(((2S,3S,4S)-3-ethyl-4-fluoro-5-oxopyrrolidin-2-yl)methoxy)-2-methylimidazo[1,2-a]quinoline-4-carboxamide] |
| 557 | 1 | – | CC[C@@H]1CC(=O)N[C@@H]1COc1ccc(F)c2cc(C(N)=O)c3nccn3c12 [Example 14, 9-(((2S,3R)-3-ethyl-5-oxopyrrolidin-2-yl)methoxy)-6-fluoroimidazo[1,2-a]quinoline-4-carboxamide] |
| 2650 | 8.2 | – | CC[C@@H]1[C@H](F)C(=O)N[C@@H]1COc1ccc(F)c2cc(C(N)=O)c3nccn3c12 [Example 15, 9-(((2S,3S,4S)-3-ethyl-4-fluoro-5-oxopyrrolidin-2-yl)methoxy)-6-fluoroimidazo[1,2-a]quinoline-4-carboxamide] |
| 1520 | 11 | – | CC[C@@H]1CC(=O)N[C@@H]1COc1nccc2cc(C(N)=O)c3nccn3c12 [Example 16, 1-(((2S,3R)-3-ethyl-5-oxopyrrolidin-2-yl)methoxy)imidazo[1,2-a][1,7]naphthyridine-6-carboxamide] |
| 94 | 4.7 | – | CC[C@@H]1[C@H](F)C(=O)N[C@@H]1COc1nccc2cc(C(N)=O)c3nccn3c12 [Example 17, 1-(((2S,3S,4S)-3-ethyl-4-fluoro-5-oxopyrrolidin-2-yl)methoxy)imidazo[1,2-a][1,7]naphthyridine-6-carboxamide] |
| 20000 | 19.7 | – | CC[C@@H]1CC(=O)N[C@@H]1COc1nccc2cc(C(N)=O)c3nc(C)cn3c12 [Example 18, 1-(((2S,3R)-3-ethyl-5-oxopyrrolidin-2-yl)methoxy)-8-methylimidazo[1,2-a][1,7]naphthyridine-6-carboxamide] |
| 485 | 3.2 | – | CC[C@@H]1[C@H](F)C(=O)N[C@@H]1COc1nccc2cc(C(N)=O)c3nc(C)cn3c12 [Example 19, 1-(((2S,3S,4S)-3-ethyl-4-fluoro-5-oxopyrrolidin-2-yl)methoxy)-8-methylimidazo[1,2-a][1,7]naphthyridine-6-carboxamide] |
| 158 | 8.8 | – | CC[C@H]1[C@@H](COc2nccc3cc(C(N)=O)c4nccn4c23)NC(=O)C1(F)F [Example 20, 1-(((2S,3S)-3-ethyl-4,4-difluoro-5-oxopyrrolidin-2-yl)methoxy)imidazo[1,2-a][1,7]naphthyridine-6-carboxamide] |
| 533 | 10.7 | – | CC[C@H]1[C@@H](COc2nccc3cc(C(N)=O)c4nc(C)cn4c23)NC(=O)C1(F)F [Example 21, 1-(((2S,3S)-3-ethyl-4,4-difluoro-5-oxopyrrolidin-2-yl)methoxy)-8-methylimidazo[1,2-a][1,7]naphthyridine-6-carboxamide] |
| 4780 | 2.1 | – | CC[C@@H]1OC(=O)N[C@@H]1COc1nccc2cc(C(N)=O)c3nccn3c12 [Example 22, 1-(((4R,5S)-5-ethyl-2-oxooxazolidin-4-yl)methoxy)imidazo[1,2-a][1,7]naphthyridine-6-carboxamide] |
| 279 | 0.9 | – | CC[C@@H]1[C@H](F)C(=O)N[C@@H]1COc1cccc2cc(C(N)=O)n3nccc3c12 [Example 34, 10-(((2S,3S,4S)-3-ethyl-4-fluoro-5-oxopyrrolidin-2-yl)methoxy)pyrazolo[5,1-a]isoquinoline-5-carboxamide] |
| 1650 | 2.6 | – | CC[C@@H]1CC(=O)N[C@@H]1COc1cccc2cc(C(N)=O)n3nccc3c12 [Example 35, 10-(((2S,3R)-3-ethyl-5-oxopyrrolidin-2-yl)methoxy)pyrazolo[5,1-a]isoquinoline-5-carboxamide] |
| 159 | 0.7 | – | CC[C@@H]1[C@H](F)C(=O)N[C@@H]1COc1nccc2cc(C(N)=O)n3nccc3c12 [Example 36, 1-(((2S,3S,4S)-3-ethyl-4-fluoro-5-oxopyrrolidin-2-yl)methoxy)pyrazolo[5,1-a][2,7]naphthyridine-6-carboxamide] |
| 586 | 3.4 | – | CC[C@@H]1CC(=O)N[C@@H]1COc1cccc2cc(C(N)=O)c3ncnn3c12 [Example 37, 9-(((2S,3R)-3-ethyl-5-oxopyrrolidin-2-yl)methoxy)-[1,2,4]triazolo[1,5-a]quinoline-4-carboxamide] |
| 78 | 15.9 | – | CC[C@H]1[C@@H](COc2cccc3cc(C(N)=O)c4ncnn4c23)NC(=O)C1(F)F [Example 39, 9-(((2S,3S)-3-ethyl-4,4-difluoro-5-oxopyrrolidin-2-yl)methoxy)-[1,2,4]triazolo[1,5-a]quinoline-4-carboxamide] |
| 1030 | 9.6 | – | CC[C@@H]1CC(=O)N[C@@H]1COc1cccc2cc(C(N)=O)c3nnnn3c12 [Example 44, 9-(((2S,3R)-3-ethyl-5-oxopyrrolidin-2-yl)methoxy)tetrazolo[1,5-a]quinoline-4-carboxamide] |
| 1080 | – | 9.7 | CC[C@@H]1CC(=O)N[C@@H]1COc1nccc2cc(C(N)=O)c3ncnn3c12 [Example 46, 9-(((2S,3R)-3-ethyl-5-oxopyrrolidin-2-yl)methoxy)-[1,2,4]triazolo[1,5-a][1,7]naphthyridine-4-carboxamide] |
| 2250 | 16.9 | – | CC[C@H]1[C@@H](COc2nccc3cc(C(N)=O)c4ncnn4c23)NC(=O)C1(F)F [Example 48, 9-(((2S,3S)-3-ethyl-4,4-difluoro-5-oxopyrrolidin-2-yl)methoxy)-[1,2,4]triazolo[1,5-a][1,7]naphthyridine-4-carboxamide] |
| 2020 | 29.1 | – | CC[C@@H]1CC(=O)N[C@@H]1COc1nccc2cc(C(N)=O)c3nc(C)nn3c12 [Example 49, 9-(((2S,3R)-3-ethyl-5-oxopyrrolidin-2-yl)methoxy)-2-methyl-[1,2,4]triazolo[1,5-a][1,7]naphthyridine-4-carboxamide] |
| 1100 | 13.6 | – | CC[C@@H]1CC(=O)N[C@@H]1COc1nccc2cc(C(N)=O)c3c(c12)CCO3 [Example 54, 1-(((2S,3R)-3-ethyl-5-oxopyrrolidin-2-yl)methoxy)-8,9-dihydrofuro[2,3-h]isoquinoline-6-carboxamide] |
| 879 | 15.3 | – | CC[C@@H]1CC(=O)N[C@@H]1COc1nccc2cc(C(N)=O)c3ncccc3c12 [Example 55, 1-(((2S,3R)-3-ethyl-5-oxopyrrolidin-2-yl)methoxy)-2,7-phenanthroline-6-carboxamide] |
| 2130 | 2.8 | – | CC[C@@H]1[C@H](F)C(=O)N[C@@H]1COc1nccc2cc(C(N)=O)c3ncccc3c12 [Example 56, 1-(((2S,3S,4S)-3-ethyl-4-fluoro-5-oxopyrrolidin-2-yl)methoxy)-2,7-phenanthroline-6-carboxamide] |
| 1460 | 9.7 | – | CC[C@@H]1CC(=O)N[C@@H]1COC1=CC(F)=CC2C=C(C(N)=O)c3nccn3C12 (stereo partly drawn) [Example 57, 9-(((2S,3R)-3-ethyl-5-oxopyrrolidin-2-yl)methoxy)-7-fluoro-5a,9a-dihydroimidazo[1,2-a]quinoline-4-carboxamide] |
| 4230 | 15.4 | – | CC[C@@H]1[C@H](F)C(=O)N[C@@H]1COC1=CC(F)=CC2C=C(C(N)=O)c3nccn3C12 (stereo partly drawn) [Example 58, 9-(((2S,3S,4S)-3-ethyl-4-fluoro-5-oxopyrrolidin-2-yl)methoxy)-7-fluoro-5a,9a-dihydroimidazo[1,2-a]quinoline-4-carboxamide] |
